Source: PMC6731595, “The anti-parasitic agent suramin and several of its analogues are inhibitors of the DNA binding protein Mcm10” (Open Biology, 2019)
Like-named read-outs stand apart in the source and are kept apart here.

Key:
[1] = target: T1, Xenopus internal domain Mcm10 (xMcm10-ID) (Xenopus laevis, UniProt Q5EAW4); experiment: Fluorescence polarization HTS and dose-response assay, 5′-6FAM probe binding to xMcm10-ID; conditions: dose-response with repurchased or purchased compound
T1 construct: xMcm10-ID (amino acid residues 229 to 427); 6xHis (HRV 3C site) (N, cleaved yes); made in house; host or cells: E. coli BL21(DE3)
T1 sequence (Q5EAW4 229-427): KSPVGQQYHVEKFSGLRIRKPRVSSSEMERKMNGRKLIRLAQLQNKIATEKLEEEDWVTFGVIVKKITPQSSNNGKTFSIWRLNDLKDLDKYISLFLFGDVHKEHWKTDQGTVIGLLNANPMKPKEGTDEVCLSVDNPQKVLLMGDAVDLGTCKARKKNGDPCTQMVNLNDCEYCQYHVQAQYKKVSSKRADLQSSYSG
Experimental: (§1) A fluorescence polarization (FP) HTS assay was established to detect inhibitors of the binding of the 5′-6FAM 10-mer oligo probe to Mcm10. Test compounds dissolved in DMSO were added to 384-well plates (Corning 4514) using an Echo 550 acoustic dispenser (final DMSO 0.1%) to achieve a final single point screening concentration of 10 µM. Then 10 µl of 2× Xenopus internal domain Mcm10 (xMcm10-ID, final concentration 2 µM) in binding buffer (20 mM Tris HCl, 100 mM NaCl, 5% glycerol, and 0.01% triton, pH 7.5) was added using the Combi nL Multidrop dispenser. Finally, 10 µl of 2× 5′-6FAM DNA (final 12.5 nM) in binding buffer was added using the Multidrop. DMSO (0.1%, high signal) and probe only (low signal) controls were included on every plate. Plates were mixed for 2 min, incubated for 60 min at RT in the dark, and read on a CLARIOstar multimode plate reader (excitation: 482-16, emission: 530-40, dichroic filter: LP504).
(§2) The LOPAC pilot screen identified the sulfhydryl reagent 4-chloromercuribenzoic acid as an inhibitor in the fluorescence polarization (FP) assay. As there was no known Mcm10 inhibitor, 4-chloromercuribenzoic acid (30 μM) was used as a positive control on initial screening plates. Following the discovery of suramin as a Mcm10 inhibitor, suramin (7 μM) was used as a positive control on subsequent screening plates. To confirm activity, screening hits were tested in dose response experiments (8 concentrations in duplicate) using xMcm10-ID. Similar dose response experiments were conducted with suramin and its analogs to confirm activity for hMcm10-ID (1 μM) and xMcm10-FL (2 μM) and to determine selectivity relative to RPA70AB (0.4 μM). Saturation experiments for each protein were conducted using increasing concentrations of protein with a fixed probe concentration (12.5 nM). FP was measured in mP units, and ∆mP values for each well were calculated as the difference between the measured mP and the average of the “probe only” controls. […] The parallel and perpendicular mP values were also used to calculate total fluorescence intensity (TFI) determined by the sum of parallel mP + (2 x perpendicular mP). TFI was used to detect fluorescence interference by compounds [1]. […] IC50 values were calculated using the four parameter logistic equation in Prism 6.0 (GraphPad). Ki values were obtained using an online Ki calculator according to the equations of Nikolovska-Coleska (http://sw16.im.med.umich.edu/soft-ware/calc_ki/). KD values were calculated using the one site or two site binding equations in Prism 6.0 (GraphPad).

[2] = target: T2, human Mcm10 internal domain (hMcm10-ID) (Homo sapiens, UniProt Q7L590); experiment: Fluorescence polarization competition assay, displacement of 5′-6FAM 10-mer ssDNA probe from hMcm10-ID; format: binding; conditions: mean ± s.e.m., n ≥ 3; hMcm10-ID 1 μM, probe 12.5 nM
T2 construct: hMcm10-ID (residues 237 to 436) were expressed in E. coli strain BL21(DE3); 6xHis (HRV 3C site) (N, cleaved yes); made in house; host or cells: E. coli BL21(DE3)
T2 sequence (Q7L590 237-436): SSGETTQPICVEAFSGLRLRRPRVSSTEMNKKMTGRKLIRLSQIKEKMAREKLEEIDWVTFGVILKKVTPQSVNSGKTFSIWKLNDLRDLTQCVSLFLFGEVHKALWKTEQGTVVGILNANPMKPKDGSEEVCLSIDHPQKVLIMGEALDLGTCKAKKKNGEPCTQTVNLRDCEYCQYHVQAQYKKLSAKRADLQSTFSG
Experimental: as §1, §2

[3] = target: T3, full-length Xenopus Mcm10 (xMcm10-FL) (Xenopus laevis, UniProt Q5EAW4); experiment: Fluorescence polarization competition assay, displacement of 5′-6FAM ssDNA probe from xMcm10-FL; format: binding; conditions: averages of n = 2; xMcm10-FL 2 μM
T3 construct: The full-length xMcm10 was expressed with MBP fused onto the N-terminus and 6x-His tag attached to the C-terminus; 6xHis (C); made in house; host or cells: E. coli BL21(DE3), as for the ID constructs ('as described above')
T3 sequence (Q5EAW4 1-860): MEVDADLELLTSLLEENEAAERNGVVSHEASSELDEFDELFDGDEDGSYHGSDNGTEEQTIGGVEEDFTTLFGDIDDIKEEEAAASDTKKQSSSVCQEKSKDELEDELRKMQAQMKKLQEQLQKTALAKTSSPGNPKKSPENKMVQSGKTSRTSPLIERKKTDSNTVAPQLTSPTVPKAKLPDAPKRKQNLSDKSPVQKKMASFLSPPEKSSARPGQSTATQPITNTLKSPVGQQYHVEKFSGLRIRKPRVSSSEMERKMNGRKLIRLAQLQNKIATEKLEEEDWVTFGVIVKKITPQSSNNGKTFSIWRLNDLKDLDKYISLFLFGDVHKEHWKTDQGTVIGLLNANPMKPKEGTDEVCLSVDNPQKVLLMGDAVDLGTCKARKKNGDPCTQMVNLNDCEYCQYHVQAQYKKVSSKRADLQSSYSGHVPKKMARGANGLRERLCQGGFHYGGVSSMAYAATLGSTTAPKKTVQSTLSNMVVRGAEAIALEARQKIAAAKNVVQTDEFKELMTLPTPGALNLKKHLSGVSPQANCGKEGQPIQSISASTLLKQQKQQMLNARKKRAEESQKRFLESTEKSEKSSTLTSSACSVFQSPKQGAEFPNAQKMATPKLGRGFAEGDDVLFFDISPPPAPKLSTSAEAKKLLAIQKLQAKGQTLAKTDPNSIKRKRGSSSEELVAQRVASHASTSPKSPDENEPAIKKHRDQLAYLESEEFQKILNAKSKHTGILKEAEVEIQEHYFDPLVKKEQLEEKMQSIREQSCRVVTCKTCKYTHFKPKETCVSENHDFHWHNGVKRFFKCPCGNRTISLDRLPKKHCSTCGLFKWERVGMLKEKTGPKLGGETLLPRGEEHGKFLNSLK
Experimental: as §1, §2

hMcm10-ID = target: T4, hMcm10-ID (Homo sapiens, UniProt Q7L590); experiment: Surface plasmon resonance binding kinetics on immobilized hMcm10-ID (Biacore S200); conditions: for surface plasmon resonance hMcm10-ID kd / kon / Kd: 1:1 model, 6000–8000 RU; for surface plasmon resonance hMcm10-ID kd / kon: 25°C; for kon: read-out: surface plasmon resonance hMcm10-ID ka; for Kd: calculated from association and dissociation rate constants, read-out: surface plasmon resonance hMcm10-ID kinetic KD; for SPR binding kinetics (description of sensorgrams): immobilized hMcm10-ID
T4 construct: hMcm10-ID (residues 237 to 436) were expressed in E. coli strain BL21(DE3); 6xHis (HRV 3C site) (N, cleaved yes); made in house; host or cells: E. coli BL21(DE3)
T4 sequence (Q7L590 237-436): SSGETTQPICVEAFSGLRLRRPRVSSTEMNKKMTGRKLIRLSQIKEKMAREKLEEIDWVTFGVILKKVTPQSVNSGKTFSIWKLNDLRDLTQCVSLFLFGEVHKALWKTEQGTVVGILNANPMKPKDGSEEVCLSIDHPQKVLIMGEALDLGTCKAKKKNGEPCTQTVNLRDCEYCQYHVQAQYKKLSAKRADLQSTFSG
Experimental: SPR experiments were performed using a Biacore S200 (GE Healthcare) equipped with a research-grade CM5 sensor chip. hMcm10-ID, at a concentration of 15 µg ml^−1 in 10 mM sodium acetate, pH 4.5, […], using an amine coupling kit (GE Healthcare) to either flow cell 2 or 4 following manufacturer directions. The reference flow cell (either flow cell 1 or 3) was left untreated. All compounds were dissolved in running buffer (10 mM PBS, 150 mM NaCl, 0.005% P20, pH 7.4) prior to injection over the chip surface at a flow rate of 30 µl min^−1 and at a temperature of 25°C. Zero concentration samples were injected for double referencing. Data were collected at a rate of 40 Hz and were fitted to a simple 1 : 1 interaction model (unless otherwise noted) using the global data analysis within the Biacore S200 evaluation software.

[4] = target: T5, human RPA70AB (A and B DNA binding domains of RPA70) (Homo sapiens, UniProt P27694); experiment: Fluorescence polarization competition assay, displacement of 5′-6FAM ssDNA probe from RPA70AB; conditions: for Ki: mean ± s.e.m., n ≥ 3; for selectivity RPA/ hMcm10: ratio of hRPA70AB Ki2 to hMcm10-ID Ki (FP)
T5 construct: recombinant human RPA70AB (181-422) in a pSV281 vector; 6xHis (TEV site) (N, cleaved yes); made in house; host or cells: Escherichia coli BL21(DE3)
T5 sequence (P27694 181-422): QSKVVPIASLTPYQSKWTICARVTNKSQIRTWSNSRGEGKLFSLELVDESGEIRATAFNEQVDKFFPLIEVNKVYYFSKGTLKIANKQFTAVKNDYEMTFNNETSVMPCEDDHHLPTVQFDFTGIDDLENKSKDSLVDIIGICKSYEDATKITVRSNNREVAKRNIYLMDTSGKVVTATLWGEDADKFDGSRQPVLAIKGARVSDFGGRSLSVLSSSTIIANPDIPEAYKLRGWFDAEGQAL
Experimental: as §1, §2

[5] = predominant low-affinity (or only) component, read-out: fluorescence polarization hRPA70AB Ki2

For `O=C(O)c1cc[c]([Hg][Cl])cc1` [4-chloromercuribenzoic acid], the “inhibition of 5′-6FAM probe binding to xMcm10-ID (result in words)” value [1] was “active”.
`O=C(Nc1cc(C(=O)Nc2ccc(S(=O)(=O)O)cc2)cc(C(=O)Nc2ccc(S(=O)(=O)O)cc2)c1)Nc1cc(C(=O)Nc2ccc(S(=O)(=O)O)cc2)cc(C(=O)Nc2ccc(S(=O)(=O)O)cc2)c1` [NF110] was tested, and the Ki [2] was 2300 ± 100 nM, the Ki [3] was 2900 nM and the “surface plasmon resonance hMcm10-ID kd” value (hMcm10-ID) was 0.35 ± 0.19 s^−1. The kon (hMcm10-ID) was 290000 ± 1.6e+10 M⁻¹ s⁻¹, the Kd (hMcm10-ID) was 1500 ± 200 nM and the “SPR binding kinetics (description of sensorgrams)” value (hMcm10-ID) was “predominantly rapid kinetics”. For the same compound, the Ki ([4]; high-affinity component of biphasic displacement curve, read-out: fluorescence polarization hRPA70AB Ki1) was 210 ± 40 nM, the Ki [4, 5] was 23000 ± 1000 nM and the “selectivity RPA/ hMcm10” value [4] was 10.
`O=C(Nc1cc(C(=O)Nc2ccc(S(=O)(=O)O)cc2S(=O)(=O)O)cc(C(=O)Nc2ccc(S(=O)(=O)O)cc2S(=O)(=O)O)c1)Nc1cc(C(=O)Nc2ccc(S(=O)(=O)O)cc2S(=O)(=O)O)cc(C(=O)Nc2ccc(S(=O)(=O)O)cc2S(=O)(=O)O)c1` [NF449] was tested, and the Ki [2] was 440 ± 40 nM, the Ki [3] was 1900 nM and the “surface plasmon resonance hMcm10-ID kd” value (hMcm10-ID) was 0.59 ± 0.10 s^−1. For the same compound, the kon (hMcm10-ID) was 780000 ± 1e+09 M⁻¹ s⁻¹, the Kd (hMcm10-ID) was 740 ± 130 nM and the “SPR binding kinetics (description of sensorgrams)” value (hMcm10-ID) was “predominantly rapid kinetics”. For the same compound, the “selectivity for hMcm10 over RPA70AB” value ([4]; FP) was “more than 10 fold”, the IC50 ([4]; below lower limit of the sensitivity of the assay, read-out: IC50 value for the high affinity component, hRPA70AB) was 93 nM and the Ki [4, 5] was 14000 ± 400 nM. The “selectivity RPA/ hMcm10” value [4] was 32.
